Experimental data: ChEMBL document CHEMBL1153692, “Inactivation of HIV-1 protease by a tripeptidyl epoxide” (Bioorg Med Chem Lett, 1992)

Key:
[1] = biological target: Human immunodeficiency virus type 1 protease (Human immunodeficiency virus 1) (UniProt Q72874); assay: Maximal inactivation rate of compound on HIV protease
[2] = biological target: Human immunodeficiency virus type 1 protease (Human immunodeficiency virus 1) (UniProt Q72874); assay: Half maximal inactivation rate of compound on HIV protease
[3] = biological target: Human immunodeficiency virus type 1 protease (Human immunodeficiency virus 1) (UniProt Q72874); assay: Maximal inactivation rate of compound on protease of Human immunodeficiency virus-1 (HIV-I) was determined
[4] = biological target: Human immunodeficiency virus type 1 protease (Human immunodeficiency virus 1) (UniProt Q72874); assay: Concentration of compound for half maximal inactivation rate on protease of Human immunodeficiency virus-1 (HIV-I) was determined

Compound	K [1] [min⁻¹]	K [2] [mM]	K [3] [min⁻¹]	K [4] [µM]
O=[N+]([O-])c1ccc(OCC2CO2)cc1 (centres undefined)	0.004	11	–	–
CC(C)C[C@@H]1O[C@@H]1[C@H](Cc1ccccc1)NC(=O)C(C)NC(Cc1ccccc1)C(=O)C(=O)OCc1ccccc1 (some centres undefined)	–	–	0.31	20
